Experimental data reported in patent US5985824A, “Methods and compositions for treating cystic fibrosis” (priority 1997, dated 1999).
Entries after “also recorded” stand apart in the source; their conditions may differ.

How the values were obtained:
[1] = tested on: ΔF508-CFTR (IBE-1 cells); assay: whole cell patch-clamp analysis of IBE-1 cells; format: cell-based, human; conditions: for reversal potential: DSG-treated cells
Method: The bath (extracellular) solution contained: 140 mM N-methyl-Dglucamine (NMDG), 2 mM CaCl2, 1 mM MgCl2, 0.1 mM CdCl2, 10 mM HEPES, 4 mM CsCl, and 10 mM glucose, pH 7.4. These solutions were designed so as to study only currents flowing through Cl^- channels, since Cl^- was the only significant permeant ion in the solutions. Furthermore, Ca^2+ -activated Cl^- currents were minimized by inclusion of 10 mM EGTA in the intracellular solution and 100 μM of Cd^2+ in the extracellular bath. K^+ currents were minimized by including 20 mM TEA in the intracellular solution. Aspartate was used as the replacement anion in experiments in which extracellular Cl^- concentration was changed. Forskolin (10 μM), IBMX (100 μM), 8-(4-chlorophenylthio)-cAMP (cpt-cAMP, 200 μM), diphenylamine carboxylic acid (DPC, 200 μM), UTP (100 μM), and ionomycin (1 μM) were added to the bath solutions as indicated. Current recordings were made from the same cells before, during, and after exposure to the solutions containing the different agonists or inhibitors. All experiments were performed at room temperature (22° C.). Currents were filtered at 2 kHz. Data acquisition and analysis were performed using the PCLAMP 5.5.1 software (Axon Instruments, Foster City, Calif.).
In all of the successfully patched CF IBE-1 cells from 6 separate coverslips no activation of whole cell currents in response to forskolin (10 μM) plus IBMX (100 μM) or cpt-cAMP (200 μM) was detected (FIG. 10A and 10B), indicating no endogenous CFTR channel activity in these cells. In contrast, in 7 out of 19 successful patched cells from 19 separate coverslips treated with DSG (10 μM) for 48 to 72 hrs. a significant activation of whole cell currents was observed. As all the other cells, the holding potential was 0 m, which inactivated the voltage-gated Na^+ and Ca^++ channels. After addition of 200 μM cpt-cAMP to the bath solution, voltage steps from the holding potential to between -100 mV and 80 mV in 20 mV increments activated whole cell currents. In these experiments, the intracellular and extracellular solutions were designed to study only current flowing through Cl^- channels, since Cl^- is the only significant permeant ion in solution. Ca^++ and K^+ currents were minimized by 100 μM of extracellular Cd^++ and 20 mM of intracellular TEA respectively. Furthermore, the currents were ascertained to be Cl^- currents from change in the reversal potential which was shifted from 1.1±1.5 to 47.3±6.1 mV by reducing extracellular Cl^- from 150 mM to 20 mM.
It is highly unlikely that Ca^++ -activated Cl^- was recorded in these experiments because of the presence of 10 mM intracellular EGTA and 100 µM extracellular Cd^++. […] Special attention was paid to detect possible contribution of the outwardly rectifying Cl^- channel (ORCC) to the whole cell currents. Because of a possible upregulatory role of CFTR, ORCC can be activated in normal but not in CF airway epithelial cells (Hwang et al. (1989), supra.; Li et al. (1988), Nature 331: 358-360; Morris and Frizzel (1993); Am. J. Physiol.; Schwiebert et al. (1994), Am. J. Physiol.).

[2] = tested on: ΔF508-CFTR (LLCPK1-ΔF508 cells); assay: SPQ assay, cAMP-stimulated Cl- channel activity, LLCPK1-ΔF508 cells; format: cell-based
Method: The cAMP-dependent CFTR Cl^- channel activity was assessed using the halide-sensitive fluorophore 6-methoxy-N-(3-sulfopropyl)-quinolinium (SPQ) essentially as described previously (Cheng et al., (1995), supra.; Marshall et al., supra.). Briefly, the cells were treated with different amounts of DSG for the times specified. At the end of the treatment period, the cells were loaded with SPQ by hypotonic shock for 4 min at room temperature. SPQ fluorescence initially was quenched by incubating the cells for up to 30 min in a NaI buffer (135 mM NaI, 2.4 mM K2 HPO4, 0.6 mM KH2 PO4, 1 mM MgSO4, 1 mM CaSO4, 10 mM dextrose, and 10 mM N-2 hydroxyethylpiperazine-N'2-ethanesulfonic acid, pH 7.4). After measuring the baseline fluorescence (Fo) for 2 min., the NaI solution was replaced with one containing 135 mM NaNO3, and fluorescence was measured for another 16 min. […]
An increase in halide permeability is reflected by a more rapid increase in SPQ fluorescence. […] Differences in absolute levels reflect quantitative differences between groups in SPQ loading, size of cells, or number of cells studied. The data are presented as means± SE of fluorescence at time t (Ft) minus the baseline fluorescence (Fo, the average fluorescence measured in the presence of I^- for 2 min. before ion substitution) and are representative of results obtained under each condition. […]

Compound: N=C(N)NCCCCCCC(=O)NC(O)C(=O)NCCCCNCCCN (centres unmarked) [DSG, deoxyspergualin]
- successfully patched cells with significant activation of whole cell currents ([1]; DSG (10 μM) 48 to 72 hrs, cAMP stimulation): 7 out of 19
- reversal potential ([1]; extracellular Cl- 150 mM): 1.1±1.5 mV
- reversal potential ([1]; extracellular Cl- reduced to 20 mM): 47.3±6.1 mV
- whole cell currents, in words ([1]; IBE-1 cells): resembled those of wild-type CFTR in epithelial cells; also recorded: almost identical to that recorded in transduced CF IBE-1 cells
- cAMP-stimulated Cl- channel activity, in words [2]: marginal; also recorded: Data similar to those described for C127-ΔF508-low cells
